{"source": "patent US20230099204A1", "about": "“PHARMACEUTICAL COMPOSITION FOR PREVENTION OR TREATMENT OF CANCER IN WHICH KRAS MUTATION AND ACTIVATED RON ARE PRESENT” (WELLMARKER BIO CO., LTD., priority 2020, published 2023)", "key": {"[1]": {"system": "T84", "assay": "MTS assay, cytotoxicity on colorectal cancer cell line T84", "assay_type": "cell-based", "settings": "Homo sapiens, RON Δ165, KRAS G13D, 72 hours", "description": "(§1) MTS assay was performed to compare cytotoxicity of the compounds of Example 1, Example 2, Example 3, Example 4, Example 5, Example 6, and positive control 1 on a colorectal cancer cell line, and a cell death rate of the colorectal cancer cell line was analyzed to compare anticancer activity of the compounds.\n(§2) The MTS assay was performed by seeding each colorectal cell line in a 96-well plate at 1,000 cells per well, and after 24 hours, performing treatment with the compounds of Examples 1 to 6 and positive control 1 at various concentrations (0.000001 μM to 10 μM) in 100 μL of 10% FBS-RPMI medium (WELGENE Inc.) per well. The cells were incubated for 72 hours. Then, 20 μL of MTS solution (Promega) was added thereto, and the cells were incubated for 2 hours. Then, the absorbance was measured at 490 nm. The IC50 values for the compounds of Examples 1 to 6 and positive control 1 were calculated using GraphPad Prism™ 5 to investigate cytotoxicity."}, "[2]": {"system": "SW620 (KRAS G12V/mRON Δ155)", "assay": "Mechanism of action in SW620 overexpressing β-catenin (trypan blue exclusion, Western blotting)", "assay_type": "cell-based, human", "description": "Each of an empty vector and human beta-catenin pcDNA3.1 (Plasmid #16828, Addgene) that is a vector into which β-catenin DNA (X87838.1, GENE ID: 1499) is introduced, was transfected into the human colorectal cancer patient-derived cell line SW620 (KRAS G12V/mRON […]), and then treatment with the compound of Example 1 was performed. Subsequently, all cells were collected when 48 hours had elapsed. Cell death induction efficacy was compared and analyzed using a trypan blue exclusion assay. As described above, the cell line SW620 was caused to overexpress β-catenin. Then, treatment with the compound of Example 1 was performed, and cell death induction efficacy was observed. In addition, as described above, the cell line SW 620 was caused to overexpress β-catenin. Then, the sample treated with the compound of Example 1 was used to identify expressions of β-catenin, p-ERK, ERK, c-myc, cyclin D1, pTyr-mRON, mRON, and cleaved caspase 3 with Western blotting."}, "[3]": {"system": "SW480", "assay": "MTS assay, cytotoxicity on colorectal cancer cell line SW480", "assay_type": "cell-based", "settings": "Homo sapiens, RON Δ155, KRAS G12V, 72 hours", "description": "as §1, §2"}, "[4]": {"system": "T84", "assay": "Cell death induction, trypan blue cell counting, T84", "assay_type": "cell-based", "settings": "T84 with a RON mutation; 1 μM; 48 hours; FIG. 1", "description": "(§3) Based on the results above, to identify the cell death-inducing ability of the compounds of Example 1 and positive control 1, which are representative materials, preparation was performed by seeding respective colorectal cancer cell lines SNU-[…], HCT8, T84, and SW620 onto 60-mm plates at 3×10^5 cells, and then incubation was performed for 24 hours. Thereafter, treatment with each of Example 1 and positive control 1 was performed at 1μM and incubation was performed for 48 hours. After 48 hours, the cells and cell suspensions were collected by treatment with trypsin, resuspended in 1× PBS and stained using a trypan blue solution (Sigma, cat# T8154). The stained cells were counted using a hemocytometer. Cell counting was repeated, and the mean and the standard deviation were calculated."}, "[5]": {"system": "HCT15 (KRAS G13D/mRON Δ160)", "assay": "Cell line HCT15-transplanted mouse model", "assay_type": "in vivo, BALB/c nude mice", "description": "5-Week-old female BALB/c nude mice were purchased and acclimatized for 1 week. Then, human colorectal cancer patient-derived cell line HCT15 (KRAS G13D/mRON Δ160) at 5×10^6 cells/mouse was injected subcutaneously (100 μL) into the right dorsal side of the mice. The compound of Example 1 was orally administered when the tumor reached a size of about 100 mm^3 The drug was administered once a day for 4 weeks, and tumor size and mouse body weight were measured twice a week.\nAfter completion of the drug administration, the tumor tissues were analyzed."}, "[6]": {"system": "SW620", "assay": "MTS assay, cytotoxicity on colorectal cancer cell line SW620", "assay_type": "cell-based", "settings": "Homo sapiens, SW-620, RON Δ155, KRAS G12V, 72 hours", "description": "as §1, §2"}, "[7]": {"system": "HCT8", "assay": "Cell death induction, trypan blue cell counting, HCT8", "assay_type": "cell-based, human", "settings": "HCT8 (pTyr-wtRON); 1 μM; 48 hours; FIG. 1", "description": "as §3"}, "[8]": {"system": "HCT8 (KRAS G13D/pTyr-wtRON(+))", "assay": "Cell line HCT8-transplanted mouse model", "assay_type": "in vivo, BALB/c nude mice", "description": "5-Week-old female BALB/c nude mice were purchased and acclimatized for 1 week. Then, human colorectal cancer patient-derived cell line SW620 (KRAS\nG12V/mRON Δ155) at 5×10^6 cells/mouse was injected subcutaneously (100 μL) into the right dorsal side of the mice. The compound of Example 1 was orally administered when the tumor reached a size of about 100 mm^3. The drug was administered once a day for 4 weeks, and tumor size and mouse body weight were measured twice a week. After completion of the drug administration, the experimental animals were euthanized, and then the tumors were extracted and weighed for comparative analysis.\nA portion of the extracted tumor tissue was fixed in 10% formalin and processed into a paraffin block. Then, the block was made into sections. Staining of the slide was performed through immunochemical staining. Another portion of the extracted tumor tissue was subjected to lysis, and then Western blotting was used to identify changes in expression of respective proteins.\nThe experiment was conducted in the same method as the procedure of Experimental Example 3, except that human colorectal cancer patient-derived cell line HCT8 (KRAS G13D/pTyr-wtRON(+)) was used in place of the human colorectal cancer patient-derived cell line SW620 (KRAS G12V/mRON Δ155), and the respective compounds of Example 1, positive control 1, and positive control 2 were administered."}, "[9]": {"system": "HCT8", "assay": "MTS assay, cytotoxicity on colorectal cancer cell line HCT8", "assay_type": "cell-based", "settings": "Homo sapiens, HCT-8, RON wt, KRAS G13D, 72 hours", "description": "as §1, §2"}}}
{"smiles": "CCOc1ccn(-c2ccc(F)cc2)c(=O)c1C(=O)Nc1ccc(Oc2ccnc3cc(-c4ccc(CN5CCOCC5)cn4)sc23)c(F)c1.Cl", "note": "[Example 1, 4-ethoxy-N-[3-fluoro-4-({2-[5-(morpholinomethyl)pyridine-2-yl]thieno[3,2-b]pyridine-7-yl}oxy)phenyl]-1-(4-fluorophenyl)-2-oxo-1,2-dihydropyridine-3-carboxamide hydrochloride]", "values": [{"measurement": "IC50", "setting": "[1]", "result": 350, "unit": "nM"}, {"measurement": "expression of pTyr-mRON", "setting": "[2]; SW620, empty vector or β-catenin overexpressed, Western blotting, FIG. 11", "result": "decreased by the compound of Example 1 regardless of β-catenin"}, {"measurement": "cell death induction efficacy", "setting": "[2]; SW620 overexpressing β-catenin, 48 hours, trypan blue exclusion, FIG. 10", "result": "cell death induction efficacy of the compound was decreased"}, {"measurement": "expression of p-ERK, c-myc, and cyclin D1", "setting": "[2]; SW620 transfected with the empty vector, Western blotting, FIG. 11", "result": "decreased"}, {"measurement": "expression of p-ERK, c-myc, and cyclin D1", "setting": "[2]; SW620 with β-catenin overexpressed, Western blotting, FIG. 11", "result": "increased again"}, {"measurement": "IC50", "setting": "[3]", "result": 340, "unit": "nM"}, {"measurement": "cell death induction efficacy", "setting": "[4]", "result": "cell death induction efficacy was exhibited regardless of mutation type"}, {"measurement": "expression of cleaved caspase 3 in tumor tissue", "setting": "[5]; FIG. 13", "result": "induced expression"}, {"measurement": "expression of cyclin D1 (PD marker) in tumor tissue", "setting": "[5]; FIG. 13", "result": "decreased expression"}, {"measurement": "expression of pTyr-mRON in tumor tissue", "setting": "[5]; FIG. 13", "result": "decreased expression"}, {"measurement": "tumor growth inhibitory efficacy", "setting": "[5]; oral, once a day for 4 weeks, FIG. 12", "result": "high tumor growth inhibitory efficacy"}, {"measurement": "IC50", "setting": "[6]", "result": 320, "unit": "nM"}, {"measurement": "cell death induction efficacy", "setting": "[7]", "result": "cell-killing efficacy was exhibited"}, {"measurement": "Tumor growth inhibition (TGI, %)", "setting": "[8]; 10 mg/kg, oral, once a day for 4 weeks", "result": "58.5 ± 9.1", "unit": "%"}, {"measurement": "tumor growth inhibitory efficacy", "setting": "[8]; compared with positive control 1 and positive control 2, FIG. 8", "result": "high tumor growth inhibitory efficacy"}, {"measurement": "IC50", "setting": "[9]", "result": 420, "unit": "nM"}]}
